# Data: patent US20220396777A1, “PATIENT-MATCHED ORGANOID SYSTEMS FOR STUDYING CANCER” (Dana-Farber Cancer Institute, Inc., priority 2019, published 2022)
# System: organoids from classical versus basal-like tumors
# Experiment: IFNγ treatment of organoids from classical and basal-like tumors
# Format: cell-based, human
# From the text: FIG. 37—Micrographs and graph showing results of IFNγ treatment in organoids from classical and basal-like tumors.
# Applicants next asked whether organoids from classical versus basal-like tumors respond differently to addition of IFNγ.
substance,measurement,setting,value
IFNγ: cytokine (type II interferon) added to organoid cultures,effect on expression state in organoids,"classical expression state, patient-derived PDAC organoids (FIG. 37)",select against the classical expression state
same,return to a basal state,patient-derived PDAC organoids (FIG. 37),may not be sufficient to drive complete return to a basal state
same,growth inhibition by IFNγ,"patient-derived PDAC organoids, classical versus basal-like tumors, preliminary results (FIG. 37)",more pronounced in organoids derived from classical tumors
